{"source": "patent US8545820B2", "about": "“Use of titanium-based materials as bactericides” (Savannah River Nuclear Solutions, LLC, priority 2010, dated 2013)", "key": {"[1]": {"test_system": "bacteria in Table 1", "assay": "Planktonic bacterial growth suppression, statements pooled over the species tested", "assay_type": "cell-based, oral bacteria", "protocol": "(§1) Set forth in Table 1 are the species of oral bacteria which were evaluated. These species are atiologic agents and periodontal disease, gingivitis, or caries that would lend themselves to treatment with a solid-phase metal titanate compound. […] All bacteria were cultured from frozen stocks expanded from ATCC cultures; the absence of contamination was verified at each thaw via Gram stain. All bacteria were grown over 24 h to mid-log phase before inoculating experimental cultures.\nOne hundred μL of the initial culture was plated in 96 well plate format number of bacterial cells present in a given volume of culture was determined by correlating OD reading of bacterial culture at 595 nm to the number of cells present. […] Prior to exposing bacteria to metal-titanate compounds, appropriate dilutions of each bacterial species were made so that metal-titanate compounds are consistently exposed to 3.56E9 bacteria for all species tested. […]\nFor metal ions alone, 5 μL of a concentrated stock solution of the respective metal salt were added to 95 μL of the bacterial cultures (n=8 per condition). […] After 24 h, the cultures were thoroughly mixed prior to reading the OD. […]\nThe initial and final mean and standard deviation OD readings were plotted as a function of concentration. […]"}, "[2]": {"test_system": "Actinomyces naeslundii (An)", "assay": "Planktonic bacterial growth suppression (OD at 595 nm, 24 h exposure)", "assay_type": "cell-based", "protocol": "as §1\n(§2) One hundred μL of the initial culture was plated in 96 well plate format number of bacterial cells present in a given volume of culture was determined by correlating OD reading of bacterial culture at 595 nm to the number of cells present. […] Prior to exposing bacteria to metal-titanate compounds, appropriate dilutions of each bacterial species were made so that metal-titanate compounds are consistently exposed to 3.56E9 bacteria for all species tested. This strategy assured the same cell to titanate particle ratio, allowed repeatability, and allowed log growth phase throughout the 24 h time when bacteria were exposed to the titanates. A 24 h incubation time with titanates was chosen to maximize the exposure to the titanates without risking a culture deteriorating from overgrowth.\n(§3) For metal ions alone, 5 μL of a concentrated stock solution of the respective metal salt were added to 95 μL of the bacterial cultures (n=8 per condition). […] The cultures were mixed to ensure contact between the titanates and the bacteria. MST and APT suspensions were thoroughly mixed prior to addition to ensure accurate transfer of the particles. […] Titanate-bacterial cultures were incubated for 24 h under the conditions appropriate for each type of bacterium. After 24 h, the cultures were thoroughly mixed prior to reading the OD. Control cultures for experiments included cultures of media alone (no titanates or bacteria), titanates in media (no bacteria), and bacteria alone (no titanates). […] All experiments were repeated in triplicate to assure reproducibility.\n(§4) The initial and final mean and standard deviation OD readings were plotted as a function of concentration. The titanate only controls were also plotted as a baseline. Cultures were statistically compared (two-sided Student's t-tests, α=0.05) to determine significant effects of the titanates (with or without added metal) on bacterial growth.\n(§5) A similar strategy was used to assess the antibacterial action of the metal ions alone, so that the relative efficacy of the titanates alone and titanate metal complexes could be compared to the metal ions alone. The delivery potential of metal ion from the titanate-metal complexes was determined by calculating the total metal mass complexed with the titanates at each titanate particle concentration."}, "[3]": {"test_system": "Prevotella intermedia (Pi)", "assay": "Planktonic bacterial growth suppression (OD at 595 nm, 24 h exposure)", "assay_type": "cell-based", "details": "concentrations ≦1500 μM", "protocol": "as §1, §2, §3, §4, §5"}, "[4]": {"test_system": "mammalian cells", "details": "metal ion alone; based on previous reports; cited from earlier work"}, "[5]": {"assay": "Aqueous solubility of the metal chloride salt", "assay_type": "physicochemical"}}}
{"smiles": "O.O.O.[Cl][Au-]([Cl])([Cl])[Cl].[H+]", "note": "[Au(III), HAuCl4•3H2O]", "values": [{"measurement": "Relative potency among the metal ions alone", "setting": "[1]; metal ions alone, excepting Pt(II)", "result": "most potent"}, {"measurement": "An growth suppression by metal ion alone", "setting": "[2]; >10 μM", "result": "completely suppressed"}, {"measurement": "Effect of metal ion alone on Pi", "setting": "[3]", "result": "no observable effect"}, {"measurement": "Inhibitory concentration for mammalian cells", "setting": "[4]", "result": "60 to 115", "unit": "µM"}]}
{"smiles": "[Cl][Pd][Cl]", "note": "[Pd(II), PdCl2]", "values": [{"measurement": "An growth suppression by metal ion alone", "setting": "[2]; >1000 μM", "result": "approximately 30%"}, {"measurement": "Inhibitory concentration for mammalian cells", "setting": "[4]", "result": "100 to 300", "unit": "µM"}]}
{"smiles": "[Cl][Pt][Cl]", "note": "[Pt(II), PtCl2]", "values": [{"measurement": "Aqueous solubility of the chloride salt", "setting": "[5]", "result": "limited aqueous solubility"}]}
{"smiles": "[Cl][Pt][Cl]", "note": "[Pt(IV), PtCl2]", "values": [{"measurement": "An growth suppression by metal ion alone", "setting": "[2]; concentrations ≦750 μM", "result": "not suppressed"}, {"measurement": "Inhibitory concentration for mammalian cells", "setting": "[4]", "result": 25, "unit": "µM"}]}
{"smiles": "CC[C@H]1OC(=O)[C@H](C)[C@@H](O[C@H]2C[C@@](C)(OC)[C@@H](O)[C@H](C)O2)[C@H](C)[C@@H](O[C@@H]2O[C@H](C)C[C@H](N(C)C)[C@H]2O)[C@](C)(O)C[C@@H](C)C(=O)[C@H](C)[C@@H](O)[C@]1(C)O", "note": "[erythromycin]", "values": [{"measurement": "Bacteriostatic control (Bac-Em)", "setting": "[1]; bacteria with erythromycin 100 μg/mL, no titanates", "result": "behaved as expected"}]}
